Earlier results in patent US20230312703A1, “Method of Treating Psoriasis with IL-23 Specific Antibody” (Janssen Biotech, Inc., priority 2022, published 2023).
Several values for one entry are separate records, joined by “and”; a condition that tells them apart may be missing. Identical values can stand only once. Like-named read-outs stand apart in the source and are kept apart here.

Legend:
[1] = tested on: participants with psoriasis; conditions: ADVANCE (apremilast arm of cross-study comparison)
[2] = tested on: participants with psoriasis; conditions: Week 16; ESTEEM2
[3] = tested on: participants with psoriasis; conditions: Week 16; ESTEEM1
[4] = tested on: participants with psoriasis; conditions: Week 16, VOYAGE 1 & 2
[5] = tested on: participants with psoriasis; conditions: Week 16; VOYAGE 2
[6] = tested on: participants with psoriasis
[7] = tested on: participants with psoriasis; remark: listed apart in the source

| Molecule | Proportion of participants who achieve an Static Physician Global Assessment (sPGA) score of 0 or 1 with at least ≥2 grade improvement from baseline at Week 16 (BSA 2-15%) [1] [%] | Proportion of participants who achieve a PASI 90 response [2] [%] | Proportion of participants who achieve a PASI 90 response [3] [%] | Proportion of participants who achieve a ss-IGA score of 0 or 1 with ≥2-grade improvement from baseline among randomized participants with scalp psoriasis and an ss-IGA score ≥2 at baseline [3] [%] | Proportion of participants who achieve an IGA score of 0 or 1 with ≥2 grade improvement from baseline (BSA 10-15%) [4] [% vs 9.1%] | Proportion of participants who achieve a PASI 90 response [5] [% vs 2.4%] | Proportion of participants who achieve an IGA score of clear (0) at Week 16 (BSA >=10%) ([6]; VOYAGE 1, BSA >=10%) [% vs 1.1%] | Change in PSSD Symptom score from baseline: Mean (SD) ([6]; Week 16, VOYAGE 1) | Percent improvement in NAPSI score from baseline: Mean (SD) ([6]; Week 16, VOYAGE 1) | Proportion of participants who achieve a PASI 90 response ([6]; Week 16, VOYAGE 1) | Proportion of participants who achieve a PASI 100 response ([6]; Week 16, VOYAGE 1) [% vs 0.6%] | Proportion of participants who achieve a ss-IGA score of 0 or 1 with ≥2-grade improvement from baseline among randomized participants with scalp psoriasis and an ss-IGA score ≥2 at baseline ([6]; Week 16, VOYAGE 1) | Proportion of participants with ≥4-point reduction (improvement) in PSSD Itch score from baseline among participants with a PSSD Itch score ≥4 at baseline ([6]; Week 16, VOYAGE 1) [% vs 5.7%] | Proportion of participants who achieve an Static Physician Global Assessment (sPGA) score of 0 or 1 with at least ≥2 grade improvement from baseline at Week 16 (BSA 2-15%) ([7]; DISCOVER 1 & 2 (guselkumab arm of cross-study comparison)) [%] | Proportion of participants who achieve an IGA score of 0 or 1 with ≥2 grade improvement from baseline (BSA 3-15%) ([7]; Week 16, DISCOVER 1 & 2, BSA 3-15%) [% vs 12.2%] |
| --- | --- | --- | --- | --- | --- | --- | --- | --- | --- | --- | --- | --- | --- | --- | --- |
| CCOc1cc([C@@H](CS(C)(=O)=O)N2C(=O)c3cccc(NC(C)=O)c3C2=O)ccc1OC [Apremilast] | 21.6 | 8.8 | 9.8 | 46.5 |  |  |  |  |  |  |  |  |  |  |  |
| Guselkumab: fully human IgG1 lambda monoclonal antibody that binds the p19 subunit of human IL-23; heavy chain SEQ ID NO: 9, light chain SEQ ID NO: 10 |  |  |  |  | 82.9 | 70.0 | 47.7 | −41.9 (24.61) vs | 34.37 (42.448) vs Percent | 73.3% vs 2.9% and 73.3% | 37.4 | 83.4% vs 14.5% and 83.4% | 75.0 | 55.7 | 55.7 |
